The subject of experiment [1] is B16. The experiment can be described thus: Inhibition of melanogenesis in mouse B16 cells at 10 uM. Format: functional.
Experiment [2] deals with B16. The experiment can be described thus: Inhibition of melanogenesis in mouse B16 cells. Format: functional, cell-based.

This note sets out measurements from ChEMBL document CHEMBL1268889, “Structural characteristics of thiosemicarbazones as inhibitors of melanogenesis” (Bioorg Med Chem Lett, 2010).

pIC50: −log10 of the molar value.

The term inhibition denotes the share of the control response that was lost under treatment. In general, pIC50 refers to the IC50 on a negative log10 scale, so that one unit is a factor of ten. The low end stands for a large IC50, the high end for a small IC50.

`NC(=S)N/N=C/C1CCCCC1`: in the experiment with B16 [1], the inhibition at 10 µM stood at 81%. Besides, the negative-log IC50 (pIC50) in the experiment with B16 [2] was 5.47. The corresponding values for `NC(=S)N/N=C/c1ccccc1` [PHENYLTHIOSEMICARBAZONE] are under 10% and under 5.00.

For the compound `NC(=S)N/N=C/c1ccc(Cl)cc1`, testing at 10 µM in the experiment on B16 [1] gave an inhibition of 92%. This compound gave a pIC50 in the experiment with B16 [2] of 5.38. `N/C(S)=N/N=C/c1ccccn1` had an inhibition at 10 µM in the experiment with B16 [1] of 15%. This compound also had a pIC50 in the experiment with B16 [2] of under 4.52.

Consider `COc1cccc(/C=N/NC(N)=S)c1`, for which testing at 10 µM in the experiment on B16 [1] gave an inhibition of 40%. This compound also gave a pIC50 in the experiment with B16 [2] of 4.81. The corresponding values for `NC(=S)N/N=C/c1cccc(Cl)c1` are over 100% and 5.62. As for `CCc1ccc(/C=N/NC(N)=S)cc1`, in the experiment on B16 [1], the inhibition at 10 µM is over 100%.

Regarding `COc1ccc(/C=N/NC(N)=S)cc1`, in the experiment on B16 [1], the inhibition at 10 µM was determined as 42%. Besides, the negative-log IC50 (pIC50) in the experiment with B16 [2] was 4.82. `NC(=S)N/N=C/c1ccccc1Cl` came in with an inhibition at 10 µM in the experiment with B16 [1] of over 100%. This compound gave a pIC50 with B16 [2] of 5.85.

With `NC(=S)N/N=C/c1ccccc1O`, at 10 µM the inhibition in the experiment with B16 [1] was 24%. The compound also had a negative logarithm of the IC50 (pIC50) in the experiment on B16 [2] of 4.68.

Take `CCc1ccccc1/C=N/NC(N)=S`: in the experiment on B16 [1], the inhibition at 10 µM is over 100%. This compound also showed a negative-log IC50 (pIC50) in the experiment on B16 [2] of 5.57. For the compound `NC(=S)N/N=C\c1cccc2ccccc12`, the inhibition at 10 µM in the experiment with B16 [1] was over 100%. For the same compound, the pIC50 in the experiment on B16 [2] is 5.96. The corresponding values for `Cc1cccc(/C=N/NC(N)=S)c1` are over 100% and 5.55.

Consider `Cc1ccc(/C=N/NC(N)=S)cc1`, for which the inhibition at 10 µM with B16 [1] was 64%. For the compound `Cc1ccccc1/C=N/NC(N)=S`, the inhibition at 10 µM with B16 [1] was over 100%. The compound further had a negative logarithm of the IC50 (pIC50) with B16 [2] of 5.47.
